Data reported in patent US7759101B2, “Ginsenoside glycosidases hydrolyzing ginsenoside sugar moieties and uses thereof” (priority 2000, dated 2010).

Key:
[1] = system: Cellobiose-producing enzyme from Clostridium; assay: Comparison: hydrolysis of ginsenosides with cellobiose-producing enzyme; assay type: biochemical, Clostridium thermocopiriae; details: substrate 0.5%, pH 5.0, 30° C., 18 hours
Text: (§1) To observe the differences between the ginsenoside glycosidases of the invention and known exo-cellulases, the ginsenoside glycosidases of the invention were compared with cellulose β-glucosidase (E.C. 3.2.1.21) in two reactions with 0.5% ginsenosides Rb1 or Rd as substrate.
An exo-cellulase from Clostridium thermocopiriae (cellobiose-producing enzyme) cleaves cellodextrin to give cellobiose, but cannot hydrolyze diglucosidic bond at C-3 of ginsenoside Rd. So it is completely different from ginsenoside glycosidase III. Therefore, the ginsenoside glycosidases of the invention are enzymes different from known cellulose β-glucosidases and cellobiose-producing enzymes.

[2] = system: ginsenoside glycosidases from A. oryzae; assay: Hydrolysis of ginsenosides with crude ginsenoside glycosidases from A. oryzae, TLC; assay type: biochemical, Aspergillus oryzae; details: pH 5.0, 30° C., 18 hours
Protocol: Aspergillus oryzae FFCCDL-39 g (available from Food Fermentation Culture Collection of Dalian Institute of Light Industry) was cultured with stirring in a medium containing 1% ginseng extracts and 3% wheat bran extracts at 30° C. for 64 hours. Cells were removed by centrifugation, after which (NH4)2SO4 powder was added to 2000 ml of the cell-free supernatant with stirring to 65% saturation. The solution was stored overnight at 4° C. and precipitated proteins were collected by centrifugation, resuspended in 80 ml of distilled water and dialyzed against 0.01M acetate buffer pH 5. Insolubles were removed by centrifugation, and the solution was adjusted to 200 ml with 0.01 M acetate buffer pH 5. The crude enzyme solution may be used to hydrolyze ginsenosides or to purify the enzymes.
Each 100 mg of ginsenosides Rb1, Rb2, Rc Re and Rd and each 10 mg of ginsenoside Rg3 and Rg2 were dissolved in separate tubes containing 10 ml of 0.01M acetate buffer pH 5. 10 ml of the crude enzyme solution obtained as above was added to each tube and allowed to react at 30° C. for 18 hours. Then 10 ml of n-butanol was added to stop the reactions. The products were measured by thin layer chromatography (TLC) (Silica gel 60-F254, Merck; chloroform:methanol:water 70:30:5). […]

[3] = system: Almond cellulose β-glucosidase(EC 3.2.1.21); assay: Comparison: hydrolysis of ginsenosides with almond cellulose β-glucosidase; assay type: biochemical; details: substrate 0.5%, pH 5.0, 30° C., 18 hours
Text: as §1

[4] = system: ginsenoside glycosidases from wheat bran; assay: Hydrolysis of ginsenosides with ginsenoside glycosidases from wheat bran; assay type: biochemical; details: 10 ml of 1% ginsenoside substrate, 40° C., 20 hours
Protocol: 500 g of wheat bran was added to 2500 ml of 0.02 M acetate buffer pH 5 and extracted at 40° C. for 2 hours. 2000 ml of supernatant were obtained by filtration to which (NH4)2SO4 was added gradually with stirring until 70% saturation. The mixture stand at 4° C. overnight. Protein pellets were collected by centrifugation and redissolved in 80 ml of distilled water and dialyzed against 0.02 M acetate buffer pH 5.0. Insolubles were removed by centrifugation and the supernatant was adjusted to a volume of 200 ml to obtain the crude enzyme solution.
10 ml of the enzyme solution was allowed to react with 10 ml of 1% ginsenoside substrate at 40° C. for 20 hours.

[5] = system: ginsenoside glycosidase I from ginseng plants; assay: Hydrolysis of ginsenosides with fraction 52 (ginsenoside glycosidase I) from ginseng plant; assay type: biochemical; details: Fraction 52; substrate 0.5%; 50° C., pH 5.0, 18 hours
Protocol: 200 g of fresh ginseng root was cut into pieces and added to 600 ml of 0.02 M acetate buffer pH 5. Supernatant was obtained by filtration after the mixture stand at 40° C. for 2 hours. To the supernatant (NH4)2SO4 was added gradually until 70% saturation and the mixture stand overnight at 4° C. Then protein pellets were collected by centrifugation and redissolved in 15 ml of distilled water. The solution was dialyzed against 0.02 M Tris-HCl pH 7.4. Insolubles were removed by centrifugation and the volume of the supernatant was adjusted to 20 ml.
5 ml of the enzyme solution was subjected to a DEAE-Cellulose DE-25 column (Whatman, 1.4×6.7 cm). The column was eluted with a KCl gradient (0.06, 0.12, 0.18 and 0.24 M) in 0.02 M Tris-HCl pH 7.4. After elution, each fraction was tested for the activity of hydrolyzing ginsenosides. […] Fraction 52 can also hydrolyze the glucosidic bond at the twentieth carbon atom of Rb and Rc to give ginsenoside F2.

[6] = system: ginsenoside glycosidase II; assay: Hydrolysis of ginsenosides with ginsenoside glycosidase II (Fraction 54); assay type: biochemical, Aspergillus niger; details: substrate 0.5%, pH 5.0, 30° C., 18 hours
Protocol: (§2) 10 ml of the enzyme solution obtained in 1.1 was subjected to a DEAE-Cellulose DE-52 column (Pharamcia, 1.5×6.7 cm) to absorb the enzyme protein. The column was then eluted with a NaCl gradient (0.06, 0.12, 0.18, 0.24, 0.3, 0.4, 0.5 and 0.6M).
Fraction 54 which was eluted with 0.18 M NaCl from the DEAE-Cellulose column was lyophilized and appeared as a single dot when running on a SDS-polyacrylamide gel with a molecular weight of 90,000 Daltons. Therefore, it represented a purified enzyme and designated as ginsenoside glycosidase II.
as §1

[7] = system: ginsenoside glycosidase I; assay: Hydrolysis of ginsenosides with Fraction 36 (ginsenoside glycosidase I); assay type: biochemical, Aspergillus niger; details: pH 5.0, 30° C.
Protocol: as §2
Fractions 36 and 54 from the DEAE-Cellulose column appeared as one dot on a SDS-polyacrylamide gel, representing the purified enzymes.
Fraction 36 which was eluted with 0.12 M NaCl from the DEAE-Cellulose column was lyophilized and appeared as a single dot with a molecular weight of 51,000 Daltons when running on a SDS-polyacrylamide gel.
as §1

[8] = Fraction 36, substrates Rb1, Rb2, Rc, Rd 0.5%, Rg3, F2, Rh2, C—K, Rg2 0.05%
[9] = Table 8, ginsenoside glycosidase I, substrate 0.5%, 18 hours

CC(C)=CCC[C@](C)(O[C@@H]1O[C@H](CO)[C@@H](O)[C@H](O)[C@H]1O)[C@H]1CC[C@]2(C)[C@@H]1[C@H](O)C[C@@H]1[C@@]3(C)CC[C@H](O[C@@H]4O[C@H](CO)[C@@H](O)[C@H](O)[C@H]4O[C@@H]4O[C@H](CO)[C@@H](O)[C@H](O)[C@H]4O)C(C)(C)[C@@H]3CC[C@]12C [Rd, ginsenoside Rd]
Percentage of Rb1 in the reaction product [1]: 100% | Percentage of C—K in the reaction product [2]: 29% | Percentage of F2 in the reaction product [2]: 40% | Percentage of Rd in the reaction product [2]: 25% | Percentage of Rg3 in the reaction product [2]: 1% | Percentage of aglycone in the reaction product [2]: 5% | Percentage of Rb1 in the reaction product [3]: 100% | Percentage of F2 in the reaction product [4]: 40% | Percentage of Rd in the reaction product [4]: 60% | Percentage of F2 in the reaction product [5]: 40% | Percentage of Rd in the reaction product [5]: 60% | Percentage of Rd in the reaction product [6]: 90% | Percentage of Rg3 in the reaction product [6]: 5% | Percentage of C—K in the reaction product [7, 8]: 25% | Percentage of F2 in the reaction product [7, 8]: 50% | Percentage of aglycone in the reaction product [7, 8]: 5% | Percentage of C—K in the reaction product [7, 9]: 25% | Percentage of F2 in the reaction product [7, 9]: 50% | Percentage of aglycone in the reaction product [7, 9]: 5%

CC(C)=CCC[C@](C)(O[C@@H]1O[C@H](CO[C@@H]2O[C@H](CO)[C@@H](O)[C@H](O)[C@H]2O)[C@@H](O)[C@H](O)[C@H]1O)[C@H]1CC[C@]2(C)[C@@H]1[C@H](O)C[C@@H]1[C@@]3(C)CC[C@H](O[C@@H]4O[C@H](CO)[C@@H](O)[C@H](O)[C@H]4O[C@@H]4O[C@H](CO)[C@@H](O)[C@H](O)[C@H]4O)C(C)(C)[C@@H]3CC[C@]12C [Rb1, ginsenoside Rb1]
Percentage of Rb1 in the reaction product [1]: 100% | Percentage of C—K in the reaction product [2]: 45% | Percentage of F2 in the reaction product [2]: 38% | Percentage of Rd in the reaction product [2]: 20% | Percentage of aglycone in the reaction product [2]: 2% | Percentage of Rb1 in the reaction product [3]: 80% | Percentage of Rd in the reaction product [3]: 20% | Percentage of F2 in the reaction product [4]: 55% | Percentage of Rd in the reaction product [4]: 40% | Percentage of F2 in the reaction product [5]: 70% | Percentage of Rd in the reaction product [5]: 30% | Percentage of Rd in the reaction product [6]: 90% | Percentage of Rg3 in the reaction product [6]: 5% | Percentage of C—K in the reaction product [7, 8]: 49% | Percentage of F2 in the reaction product [7, 8]: 38% | Percentage of Rd in the reaction product [7, 8]: 8% | Percentage of Rh2 in the reaction product [7, 8]: 1% | Percentage of aglycone in the reaction product [7, 8]: 2% | Percentage of C—K in the reaction product [7, 9]: 49% | Percentage of F2 in the reaction product [7, 9]: 38% | Percentage of Rd in the reaction product [7, 9]: 8% | Percentage of Rh2 in the reaction product [7, 9]: 1% | Percentage of aglycone in the reaction product [7, 9]: 2%
